In patent publication US20190282501A1, “HYDROALCOHOLIC FOAM FORMULATIONS OF NAFTIFINE” (priority 2016, published 2019):
Counter-ions that a name gives are not always drawn. Like-named read-outs stand apart in the source and are kept apart here.

Experiments:
[1] = after 3m and after 6m at 25° C., 30° C. and 40° C.; stated below Table 6B (Formulation D)
Experimental: The amount of active agent present is analyzed in foam expelled from various pressurized canisters containing foam formulations using HPLC. Analysis is carried out at zero time and at appropriate time intervals thereafter. The canisters are stored in controlled temperature incubators at one or more of 5° C., at 25° C., at, 40° C. and at 50° C. At appropriate time intervals canisters are removed and the amount of active agent in the foam sample is measured.

[2] = Experimental: To generate a foam composition that is capable of maintaining the high solubility of naftifine HCl without needing to add in surfactants, the solubility of the API with various excipients was tested. Naftifine hydrochloride was combined with different solvents to identify which solvents are able to solubilize the API. The objective of this study was to determine which solvents can be useful in the development of formulations where the API is soluble. The objective of this study was not to determine the maximal solubility of the API in the tested solvents.
To prepare the mixtures, the API was added at a 1% w/w concentration to each solvent at room temperature under mixing. Solubility at room temperature was then assessed after 24 hours by determining the presence of API crystals using microscopic observation at ×200 magnification under polarized light. The mixture was then heated to about 80° C. for 10 minutes and mixed. Solubility at 80° C. was assessed by visual observation. The mixture was then cooled to room temperature and solubility was assessed after 24 hours by determining the presence of API crystals using microscopic evaluation at ×200 magnification under polarized light.
The first column in Table 5 relates to the solubility at room temperature before heating to 80° C. The second column relates to the solubility at 80° C. as observed visually. The third column relates to the solubility after the mixture has been heated to 80° C. and cooled down to room temperature.

[3] = in Capric caprylic triglycerides

Stability of naftifine [1]: stable
Dissolution in hydrophobic solvents ([2]; hydrophobic solvents, even under heating): did not dissolve
Max. Solubility at RT after heating at 80° C. [2, 3]: <1%
Maximum Solubility at 80° C. [2, 3]: <1%
Maximum Solubility at RT [2, 3]: <1%
Max. Solubility at RT after heating at 80° C. ([2]; in Castor oil): <1%
Maximum Solubility at 80° C. ([2]; in Castor oil): <1%
Maximum Solubility at RT ([2]; in Castor oil): <1%
Max. Solubility at RT after heating at 80° C. ([2]; in Cyclomethicone): <1%
Maximum Solubility at 80° C. ([2]; in Cyclomethicone): <1%
Maximum Solubility at RT ([2]; in Cyclomethicone): <1%
Max. Solubility at RT after heating at 80° C. ([2]; in Diethyl sebacate): <1%
Maximum Solubility at 80° C. ([2]; in Diethyl sebacate): <1%
Maximum Solubility at RT ([2]; in Diethyl sebacate): <1%
Max. Solubility at RT after heating at 80° C. ([2]; in Diisopropyl adipate): <1%
Maximum Solubility at 80° C. ([2]; in Diisopropyl adipate): <1%
Maximum Solubility at RT ([2]; in Diisopropyl adipate): <1%
Max. Solubility at RT after heating at 80° C. ([2]; in Dimethyl isosorbide): <1%
Maximum Solubility at 80° C. ([2]; in Dimethyl isosorbide): <1%
Maximum Solubility at RT ([2]; in Dimethyl isosorbide): <1%
Max. Solubility at RT after heating at 80° C. ([2]; in Dimethyl sulfoxide): >8%
Maximum Solubility at 80° C. ([2]; in Dimethyl sulfoxide): >8%
Maximum Solubility at RT ([2]; in Dimethyl sulfoxide): ~2%
Maximum Solubility at 80° C. ([2]; in Ethanol 95%): >8%
Maximum Solubility at RT ([2]; in Ethanol 95%): ~4%
Max. Solubility at RT after heating at 80° C. ([2]; in Ethanol 95%, hydrochloride): >8%
Max. Solubility at RT after heating at 80° C. ([2]; in Ethanol 95%, listed as naftifine HCl, hydrochloride): higher than 8%
Max. Solubility at RT after heating at 80° C. ([2]; in Glycerin): ~1%
Maximum Solubility at 80° C. ([2]; in Glycerin): ~1%
Maximum Solubility at RT ([2]; in Glycerin): <1%
Max. Solubility at RT after heating at 80° C. ([2]; in Glycofurol): ~1%
Maximum Solubility at 80° C. ([2]; in Glycofurol): ~1%
Maximum Solubility at RT ([2]; in Glycofurol): <1%
Max. Solubility at RT after heating at 80° C. ([2]; in Hexylene glycol): ~1%
Maximum Solubility at 80° C. ([2]; in Hexylene glycol): ~1%
Maximum Solubility at RT ([2]; in Hexylene glycol): <1%
Max. Solubility at RT after heating at 80° C. ([2]; in Isopropyl alcohol): ~2%
Maximum Solubility at 80° C. ([2]; in Isopropyl alcohol): ~2%
Maximum Solubility at RT ([2]; in Isopropyl alcohol): <1%
Max. Solubility at RT after heating at 80° C. ([2]; in Isopropyl myristate): <1%
Maximum Solubility at 80° C. ([2]; in Isopropyl myristate): <1%
Maximum Solubility at RT ([2]; in Isopropyl myristate): <1%
Max. Solubility at RT after heating at 80° C. ([2]; in Isostearic acid): <1%
Maximum Solubility at 80° C. ([2]; in Isostearic acid): <1%
Maximum Solubility at RT ([2]; in Isostearic acid): <1%
Max. Solubility at RT after heating at 80° C. ([2]; in Mineral oil light): <1%
Maximum Solubility at 80° C. ([2]; in Mineral oil light): <1%
Maximum Solubility at RT ([2]; in Mineral oil light): <1%
Max. Solubility at RT after heating at 80° C. ([2]; in Octyldodecanol): <1%
Maximum Solubility at 80° C. ([2]; in Octyldodecanol): <1%
Maximum Solubility at RT ([2]; in Octyldodecanol): <1%
Max. Solubility at RT after heating at 80° C. ([2]; in Oleic acid): <1%
Maximum Solubility at 80° C. ([2]; in Oleic acid): <1%
Maximum Solubility at RT ([2]; in Oleic acid): <1%
Max. Solubility at RT after heating at 80° C. ([2]; in Oleyl alcohol): <1%
Maximum Solubility at 80° C. ([2]; in Oleyl alcohol): <1%
Maximum Solubility at RT ([2]; in Oleyl alcohol): <1%
Max. Solubility at RT after heating at 80° C. ([2]; in Olive oil): <1%
Maximum Solubility at 80° C. ([2]; in Olive oil): <1%
Maximum Solubility at RT ([2]; in Olive oil): <1%
Max. Solubility at RT after heating at 80° C. ([2]; in PPG-15 stearyl ether): <1%
Maximum Solubility at 80° C. ([2]; in PPG-15 stearyl ether): <1%
Maximum Solubility at RT ([2]; in PPG-15 stearyl ether): <1%
Max. Solubility at RT after heating at 80° C. ([2]; in Polyethylene glycol 200): ~3%
Maximum Solubility at 80° C. ([2]; in Polyethylene glycol 200): ~6%
Maximum Solubility at RT ([2]; in Polyethylene glycol 200): <1%
Max. Solubility at RT after heating at 80° C. ([2]; in Polyethylene glycol 400): <1%
Maximum Solubility at 80° C. ([2]; in Polyethylene glycol 400): <1%
Maximum Solubility at RT ([2]; in Polyethylene glycol 400): <1%
Max. Solubility at RT after heating at 80° C. ([2]; in Propylene glycol): >8%
Maximum Solubility at 80° C. ([2]; in Propylene glycol): >8%
Maximum Solubility at RT ([2]; in Propylene glycol): <1%
Max. Solubility at RT after heating at 80° C. ([2]; in Sodium pyroglutamic acid): <1%
Maximum Solubility at 80° C. ([2]; in Sodium pyroglutamic acid): <1%
Maximum Solubility at RT ([2]; in Sodium pyroglutamic acid): <1%
Max. Solubility at RT after heating at 80° C. ([2]; in Soybean oil): <1%
Maximum Solubility at 80° C. ([2]; in Soybean oil): <1%
Maximum Solubility at RT ([2]; in Soybean oil): <1%
Max. Solubility at RT after heating at 80° C. ([2]; in Transcutol): ~2%
Maximum Solubility at 80° C. ([2]; in Transcutol): ~2%
Maximum Solubility at RT ([2]; in Transcutol): <1%
Max. Solubility at RT after heating at 80° C. ([2]; in Water): ~1%
Maximum Solubility at 80° C. ([2]; in Water): ~1%
Maximum Solubility at RT ([2]; in Water): <1%
Dissolution in hydrophilic solvents ([2]; propylene glycol (after heating), ethanol, dimethyl sulfoxide and polyethylene glycol 200 (after heating)): dissolved well
SMILES: CN(C/C=C/c1ccccc1)Cc1cccc2ccccc12 [naftifine hydrochloride, (E)-N-methyl-N-(1-naphthyl-methyl)-3-phenyl-2-propen-l-amine hydrochloride]
